Test results published in ChEMBL document CHEMBL1201862, “PubChem BioAssay data set” (2004).
Active and inactive are the calls of the source.

How the values were obtained:
[1] = molecular target: fMet-Leu-Phe receptor (Homo sapiens, UniProt P21462); assay: formyl peptide receptor binders – dose response (AID 519); assay type: functional
[2] = molecular target: T1, Protein skinhead-1 (Caenorhabditis elegans, UniProt P34707); assay type: functional
T1 sequence (P34707 whole entry): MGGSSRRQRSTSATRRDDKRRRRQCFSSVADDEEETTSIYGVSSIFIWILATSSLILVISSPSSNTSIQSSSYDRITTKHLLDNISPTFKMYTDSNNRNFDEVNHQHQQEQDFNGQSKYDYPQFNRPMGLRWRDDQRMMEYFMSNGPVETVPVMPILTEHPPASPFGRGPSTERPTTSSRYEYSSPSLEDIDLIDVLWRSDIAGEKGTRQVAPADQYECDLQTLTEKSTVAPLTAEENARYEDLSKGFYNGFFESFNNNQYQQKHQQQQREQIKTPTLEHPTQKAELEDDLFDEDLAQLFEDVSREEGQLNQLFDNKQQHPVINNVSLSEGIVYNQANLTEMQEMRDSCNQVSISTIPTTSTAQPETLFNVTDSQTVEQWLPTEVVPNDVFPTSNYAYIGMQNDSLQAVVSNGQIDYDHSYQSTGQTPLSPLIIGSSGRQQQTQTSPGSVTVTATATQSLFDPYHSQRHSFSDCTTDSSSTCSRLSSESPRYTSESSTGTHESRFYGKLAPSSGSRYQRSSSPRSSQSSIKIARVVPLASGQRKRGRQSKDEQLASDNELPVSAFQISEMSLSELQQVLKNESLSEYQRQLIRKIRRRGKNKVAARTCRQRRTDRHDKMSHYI

[3] = molecular target: T2, Long-chain-fatty-acid--AMP ligase FadD28 (Mycobacterium tuberculosis, UniProt P9WQ59); assay: Fluorescence polarization aasay to screen for inhibitors that compete for the binding of FadD28 to a bisubstrate Measured in Biochemical System Using Plate Reader - 2147-01_Inhibitor_Dose_CherryPick_Activity.; assay type: functional, Mycobacterium tuberculosis H37Rv
T2 sequence (P9WQ59 whole entry): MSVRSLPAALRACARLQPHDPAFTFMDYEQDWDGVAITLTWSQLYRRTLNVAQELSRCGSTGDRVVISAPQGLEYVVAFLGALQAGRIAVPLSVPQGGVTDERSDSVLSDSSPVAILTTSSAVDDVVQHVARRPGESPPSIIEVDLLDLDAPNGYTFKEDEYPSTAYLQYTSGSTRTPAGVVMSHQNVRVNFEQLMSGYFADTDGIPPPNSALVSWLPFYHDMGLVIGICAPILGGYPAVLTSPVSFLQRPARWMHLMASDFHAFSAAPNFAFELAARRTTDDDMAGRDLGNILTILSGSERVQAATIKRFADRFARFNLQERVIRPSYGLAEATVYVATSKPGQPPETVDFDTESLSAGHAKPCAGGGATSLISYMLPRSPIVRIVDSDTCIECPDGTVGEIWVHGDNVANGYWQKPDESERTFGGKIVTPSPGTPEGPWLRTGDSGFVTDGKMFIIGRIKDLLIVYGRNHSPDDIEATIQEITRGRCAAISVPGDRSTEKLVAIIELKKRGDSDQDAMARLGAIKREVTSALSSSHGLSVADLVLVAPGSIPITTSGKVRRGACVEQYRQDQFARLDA

[4] = molecular target: T3, Fibrinogen beta chain (Homo sapiens, UniProt P02675); assay: Fluorescence polarization-based biochemical high throughput dose response assay to identify inhibitors that disrupt the binding of a cyclic peptide (Tn6) to the fibrin proteolytic product D-Dimer and fragment E complex [DD(E )].
T3 sequence (P02675 whole entry): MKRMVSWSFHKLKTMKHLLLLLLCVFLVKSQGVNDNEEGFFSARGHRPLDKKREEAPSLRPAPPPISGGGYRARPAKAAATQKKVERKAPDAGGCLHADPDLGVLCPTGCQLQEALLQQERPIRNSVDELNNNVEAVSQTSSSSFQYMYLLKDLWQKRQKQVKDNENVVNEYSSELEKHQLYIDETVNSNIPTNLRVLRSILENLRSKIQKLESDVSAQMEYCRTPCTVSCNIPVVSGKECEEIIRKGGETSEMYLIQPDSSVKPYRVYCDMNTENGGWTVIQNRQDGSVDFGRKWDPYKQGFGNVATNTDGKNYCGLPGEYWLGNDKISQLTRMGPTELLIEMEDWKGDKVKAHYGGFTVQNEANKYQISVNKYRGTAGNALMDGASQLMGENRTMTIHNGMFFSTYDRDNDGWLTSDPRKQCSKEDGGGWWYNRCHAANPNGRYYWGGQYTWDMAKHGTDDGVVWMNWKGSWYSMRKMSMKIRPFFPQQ

[5] = molecular target: T3, Fibrinogen beta chain; assay: Fluorescence polarization-based biochemical high throughput dose response assay to identify inhibitors that disrupt the binding of a cyclic peptide (Tn7) to the fibrin proteolytic product D-Dimer and fragment E complex [DD(E )].
[6] = Trypanosoma cruzi growth suppression in host cells – NIH3T3 host cells, beta-gal luminescence, confirmation (AID 2044); assay type: functional, cell-based;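 further: intracellular parasites grown in NIH/3T3 mouse fibroblasts as host cells; luminescent beta-galactosidase reporter signal from transgenic T. cruzi replicating inside host cells; inhibitors lower the luminescence signal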
[7] = NIH3T3 cell viability loss – ATP luminescence, mouse fibroblasts, counter-screen, dose response (AID 2010); assay type: functional, cell-based;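 further: cells exposed to compound for about 90 hours before reading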
[8] = THP-1 cell cytotoxicity, dose response, cytotoxicity control for non-replicating M. tuberculosis project (AID 489025); assay type: functional
[9] = Vero E6 cell cytotoxicity, dose response, cytotoxicity control for non-replicating M. tuberculosis project, secondary assay (AID 492998); assay type: functional, VeroE6; settings: Vero C1008
[10] = molecular target: T4, Microphthalmia-associated transcription factor (Homo sapiens, UniProt O75030); assay: reducers of TRPM1 reporter luminescence, concentration series – cell-based, SK-MEL-5, cherry-picked, set 3, MITF inhibitor project, dose response (AID 493073); assay type: functional;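 further: SK-MEL-5 melanoma cells with luciferase driven by the MITF target TRPM1 promoter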
T4 sequence (O75030 whole entry): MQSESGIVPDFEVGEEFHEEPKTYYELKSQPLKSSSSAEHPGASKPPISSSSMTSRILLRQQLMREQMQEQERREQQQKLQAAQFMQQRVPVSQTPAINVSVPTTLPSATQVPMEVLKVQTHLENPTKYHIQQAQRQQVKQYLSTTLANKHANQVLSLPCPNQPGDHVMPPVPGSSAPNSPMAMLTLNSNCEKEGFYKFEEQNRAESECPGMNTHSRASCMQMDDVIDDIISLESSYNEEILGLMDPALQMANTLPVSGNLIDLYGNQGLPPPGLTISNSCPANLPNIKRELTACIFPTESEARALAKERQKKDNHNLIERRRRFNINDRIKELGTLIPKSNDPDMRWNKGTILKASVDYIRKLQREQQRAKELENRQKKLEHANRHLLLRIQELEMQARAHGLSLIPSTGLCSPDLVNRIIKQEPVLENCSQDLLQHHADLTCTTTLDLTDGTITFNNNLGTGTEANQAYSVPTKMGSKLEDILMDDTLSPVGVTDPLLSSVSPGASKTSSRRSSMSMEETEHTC

[11] = cytotoxicity in MITF-independent A375 cells – cell-based, CellTiter-Glo luminescence, dry powder, set 4, counter-screen for MITF inhibitor project, dose response (AID 624364); assay type: functional; settings: A-375;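 further: A375 melanoma cells are MITF independent so this is a counter screen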
[12] = viability loss in MITF-independent A375 cells – cell-based, CellTiter-Glo luminescence, dry powder, set 2, counter-screen for MITF inhibitor project, dose response (AID 624489); assay type: functional; settings: A-375;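 further: actives are compounds lowering A375 viability meaning general cytotoxicity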
[13] = viability loss in THP-1 monocytes – THP-1 cells, cytotoxicity control for Vif-APOBEC3G degradation inhibitor project, dose response (AID 1117359); assay type: functional; settings: THP-1
[14] = HIV-1 Vif–A3G interaction blockers – biochemical, TR-FRET, GST-Vif 1-94, biotin-A3G peptide, dose response retest, primary screen (AID 1117319); assay type: functional;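 further: TR-FRET signal of purified GST-Vif binding a biotinylated A3G peptide; inhibitors lower the FRET signal by blocking Vif and A3G binding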
[15] = potency of ADAM10 substrate cleavage blockers – biochemical, QFRET, dose response (AID 743254);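 further: ADAM10 enzyme with the DM2 quenched FRET peptide as substrate; EDANS fluorescence gain as the protease cuts the substrate; inhibitor potency against ADAM10 proteolytic activity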
[16] = molecular target: Disintegrin and metalloproteinase domain-containing protein 17 (Homo sapiens, UniProt P78536); assay: inhibition of ADAM17 substrate cleavage – biochemical, quenched FRET substrate, counter-screen for ADAM10 exosite inhibitor project, dose response (AID 743253)
Chain of Disintegrin and metalloproteinase domain-containing protein 17 (P78536 whole entry, the tested form may be a part): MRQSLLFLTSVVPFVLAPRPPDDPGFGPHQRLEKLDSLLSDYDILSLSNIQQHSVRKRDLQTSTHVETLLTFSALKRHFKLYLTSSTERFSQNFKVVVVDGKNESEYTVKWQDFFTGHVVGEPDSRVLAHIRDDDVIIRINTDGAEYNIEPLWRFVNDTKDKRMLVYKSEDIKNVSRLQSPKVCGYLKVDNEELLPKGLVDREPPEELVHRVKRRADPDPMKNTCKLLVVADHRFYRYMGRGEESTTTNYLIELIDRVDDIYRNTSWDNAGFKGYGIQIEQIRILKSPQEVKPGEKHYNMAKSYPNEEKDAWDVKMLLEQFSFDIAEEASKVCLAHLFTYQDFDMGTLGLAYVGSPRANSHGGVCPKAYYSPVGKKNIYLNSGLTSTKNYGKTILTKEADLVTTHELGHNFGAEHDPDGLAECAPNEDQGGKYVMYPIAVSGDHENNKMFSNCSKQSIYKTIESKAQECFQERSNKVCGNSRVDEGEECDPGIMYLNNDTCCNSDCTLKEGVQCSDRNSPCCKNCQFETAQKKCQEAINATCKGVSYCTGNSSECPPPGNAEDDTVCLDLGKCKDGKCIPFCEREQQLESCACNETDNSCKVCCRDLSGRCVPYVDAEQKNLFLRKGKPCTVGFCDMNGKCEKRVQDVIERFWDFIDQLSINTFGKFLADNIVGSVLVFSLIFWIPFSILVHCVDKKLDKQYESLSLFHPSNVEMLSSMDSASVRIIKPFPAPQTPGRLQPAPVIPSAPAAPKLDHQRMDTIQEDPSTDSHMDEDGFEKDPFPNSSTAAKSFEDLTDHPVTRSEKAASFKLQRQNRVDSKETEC

[17] = molecular target: Paired box protein Pax-8 (Homo sapiens, UniProt Q06710); assay: PAX8 transcriptional activity inhibition in RMG-I – RMG-I cells, luciferase, cherry-pick, dose response (AID 687027); assay type: functional, cell-based;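 further: luciferase reporter driven by Pax8 target thyroperoxidase promoter measured by SteadyGlo luminescence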
Chain of Paired box protein Pax-8 (Q06710 whole entry): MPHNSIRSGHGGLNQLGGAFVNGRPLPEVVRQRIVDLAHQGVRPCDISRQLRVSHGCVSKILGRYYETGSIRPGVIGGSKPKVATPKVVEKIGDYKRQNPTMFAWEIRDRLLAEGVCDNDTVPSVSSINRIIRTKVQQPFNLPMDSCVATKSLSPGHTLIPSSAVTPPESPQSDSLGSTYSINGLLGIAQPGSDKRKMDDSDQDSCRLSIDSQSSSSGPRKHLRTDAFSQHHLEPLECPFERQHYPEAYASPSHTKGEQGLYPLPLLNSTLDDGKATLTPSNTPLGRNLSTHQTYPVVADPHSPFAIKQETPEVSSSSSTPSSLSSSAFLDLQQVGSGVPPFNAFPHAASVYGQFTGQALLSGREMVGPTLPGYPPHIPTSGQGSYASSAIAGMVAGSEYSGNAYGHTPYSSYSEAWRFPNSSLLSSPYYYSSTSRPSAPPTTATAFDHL

[18] = A2780 cell killing – plate reader, dry powder samples, cytotoxicity control, dose response (AID 743046); assay type: functional, cell-based
[19] = OVCAR-3 cell viability loss – plate reader, dry powder samples, PAX8 inhibitor project, dose response (AID 743044); assay type: functional, cell-based
[20] = general cell-killing toxicity readout – plate reader, dry powder samples, cytotoxicity control for PAX8 inhibitor project, dose response (AID 743021); assay type: functional, cell-based
[21] = OVCAR8 cell viability loss – plate reader, dry powder samples, PAX8 project, dose response (AID 743197); assay type: functional, cell-based; settings: OVCAR-8
[22] = reduced cellular PGC1a acetyl-lysine signal – cell-based, cherry-picked samples, dose response (AID 720514); assay type: functional;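 further: potency may reflect raised or lowered acetylation signal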
[23] = viability loss in HepG2 hepatoma cells – cell-based, cherry-picks, set 5, cytotoxicity control, dose response (AID 1053118); assay type: functional
[24] = viability loss in HEK293 kidney cells – cell-based, cherry-picks, set 5, cytotoxicity control, dose response (AID 1053117); assay type: functional
[25] = viability loss in A549 lung cancer cells – cell-based, cherry-picks, […], cytotoxicity control, dose response (AID 1053119); assay type: functional
[26] = viability of PTEN-deleted HCT116 cells – cell-based, HCT116 PTEN knockout, dose response (AID 1047); assay type: functional;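 further: HCT116 colon tumor cells with PTEN knocked out; cells exposed to compound for 60 hours before readout; potency for loss of cell viability measured by luminescence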
[27] = viability of HCT116 lacking mutant beta-catenin – cell-based, human colon tumor, dose response (AID 1045); assay type: functional;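 further: HCT116 colon tumor cells with beta catenin knocked out; cells exposed to compound for 60 hours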
[28] = Dd2 parasite growth inhibition in erythrocytes – SYBR Green, dry powder samples, set 9, dose response (AID 1159568); assay type: functional, cell-based

Chain of fMet-Leu-Phe receptor (P21462 whole entry): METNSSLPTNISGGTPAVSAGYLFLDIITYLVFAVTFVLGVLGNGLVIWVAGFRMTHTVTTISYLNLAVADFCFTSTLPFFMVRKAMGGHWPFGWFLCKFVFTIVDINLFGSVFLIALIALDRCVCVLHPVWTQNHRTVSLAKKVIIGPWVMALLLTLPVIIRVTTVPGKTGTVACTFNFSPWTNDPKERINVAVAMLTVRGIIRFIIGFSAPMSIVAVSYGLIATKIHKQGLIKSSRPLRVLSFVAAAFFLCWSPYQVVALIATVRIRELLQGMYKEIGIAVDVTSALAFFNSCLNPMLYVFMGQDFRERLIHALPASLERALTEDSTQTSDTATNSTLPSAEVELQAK

## COCCCN1C(=O)C(O)=C(C(=O)c2ccco2)C1c1ccccc1 (stereo not given)
[1]
  Ki: 14.5 µM (active)

## CCn1c(CSc2n[nH]c(N)n2)nc2cc(C(=O)O)ccc21
[2]
  IC50: > 100 µM (inactive)
[3]
  AC50: 79 µM (active)
[4]
  IC50: 8.92 µM (active)
[5]
  IC50: > 83.3 µM (inactive)

## CN(c1ccccc1)S(=O)(=O)c1ccc(Cl)c(C(=O)Nc2ccc(-c3nc4ccccc4[nH]3)cc2)c1
[6]
  EC50: 1.68 µM (active)
[7]
  EC50: > 30 µM (not active)
[4]
  IC50: > 83.3 µM (inactive)
[5]
  IC50: > 83.3 µM (inactive)

## COc1ccc(S(=O)(=O)N(C(C)=O)c2ccc(OC(C)=O)c3ccccc23)cc1[N+](=O)[O-]
[8]
  CC50: 10.7 µM (active)
[9]
  CC50: > 20 µM (active)
[10]
  AC50: 11.6 µM (active)
[11]
  AC50: 55.5 µM (active)
[12]
  AC50: 29.1 µM (active)

## COc1ccc(CN(C(=O)c2ccccc2OC)C2CCS(=O)(=O)C2)cc1 (stereo not given)
[1]
  Ki: > 66.7 µM (inactive)

## CC1C(=O)N2CCCc3cc(NC(=O)C(=O)NCc4cccnc4)cc1c32 (stereo not given)
[13]
  CC50: > 40 µM (active)

## CC(C)Cc1ccc(C(C)C(=N)N)cc1 (stereo not given)
[13]
  CC50: > 40 µM (active)
[14]
  IC50: > 100 µM (active)

## CC1(Cc2ccc(C(F)(F)F)o2)C(=O)Nc2cc(-c3ccc(F)cc3F)ccc21 (stereo not given)
[15]
  IC50: 15.6 µM (inactive)
[16]
  IC50: > 69.5 µM (inactive)

## C[C@H]1CCCCO[C@H](CN(C)S(=O)(=O)c2ccccc2)[C@@H](C)CN([C@@H](C)CO)C(=O)c2cc(NS(=O)(=O)c3ccc(Cl)cc3)ccc2O1
[17]
  AC50: 7.4 µM (active)
[18]
  AC50: 19.1 µM (active)
[19]
  AC50: 58.4 µM (active)
[20]
  AC50: 43.2 µM (active)
[21]
  AC50: > 70 µM (inactive)

## CO[C@H]1CN(C)C(=O)c2ccc(NC(=O)c3ccc(-c4ccccc4)cc3)cc2OC[C@H](C)NC[C@@H]1C
[22]
  AC50: 31.9 µM (active)
[23]
  AC50: > 52 µM (inactive)
[24]
  AC50: > 52 µM (inactive)
[25]
  AC50: > 52 µM (inactive)

## CO[C@H]1CN(C)C(=O)c2cc(NC(=O)Nc3cc(Cl)cc(Cl)c3)ccc2OC[C@H](C)NC[C@H]1C
[23]
  AC50: 16.6 µM (active)
[24]
  AC50: 34.3 µM (active)
[25]
  AC50: > 52 µM (inactive)

## CCN1CCN(C2=C(NS(=O)(=O)c3cccs3)C(=O)c3ccccc3C2=O)CC1
[11]
  AC50: > 70 µM (inactive)
[12]
  AC50: 56.1 µM (active)

## O=S(=O)(N/N=C/c1cn(Cc2ccccc2)c2ccccc12)c1ccccc1
[26]
  EC50: 3.27 µM (active)
[27]
  EC50: 35.6 µM (active)
[15]
  IC50: 25.1 µM (inactive)
[16]
  IC50: > 69.5 µM (inactive)

## CN(C)C(=O)c1ccc(-c2ccc([C@@H]3[C@H]4CN(C(=O)CC5CC5)CC(=O)N4[C@H]3CO)cc2)cc1
[28]
  AC50: 14.4 µM (active)

## Cc1ccccc1-c1ccc2c(c1)O[C@H](CN(C)C(=O)Nc1ccc(C(F)(F)F)cc1)[C@@H](C)CN([C@@H](C)CO)S2(=O)=O
[28]
  AC50: 5.32 µM (active)
